Experimental data published in paper PMC6695598, “The Development of Tetrazole Derivatives as Protein Arginine Methyltransferase I (PRMT I) Inhibitors” (International Journal of Molecular Sciences, 2019).
Counter-ions that a name gives are not always drawn.

Experiments:
PRMT1 = PRMT1 (Homo sapiens, UniProt Q99873); test: radioactive PRMT1 methylation inhibition assay ([3H]-SAM, biotinylated histone H4 peptide); type: biochemical; details: for inhibition at 10 µM / % Inhibition of PRMT1 (at 10 μM): 10 μM compound, initial screening
Sequence of PRMT1 (Q99873 whole entry): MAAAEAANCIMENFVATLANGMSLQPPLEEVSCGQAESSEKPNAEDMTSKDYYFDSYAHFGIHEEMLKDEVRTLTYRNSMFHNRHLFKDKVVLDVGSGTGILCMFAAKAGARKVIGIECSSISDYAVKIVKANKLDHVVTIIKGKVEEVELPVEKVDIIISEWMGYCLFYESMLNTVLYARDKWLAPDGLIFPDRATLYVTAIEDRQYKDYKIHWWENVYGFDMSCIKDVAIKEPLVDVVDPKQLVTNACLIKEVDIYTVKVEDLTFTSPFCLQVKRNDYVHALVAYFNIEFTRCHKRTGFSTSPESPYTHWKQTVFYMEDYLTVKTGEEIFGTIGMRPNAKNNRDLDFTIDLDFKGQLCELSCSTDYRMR
Description: A series of 1,5-substituded tetrazole derivatives were synthesized to investigate the structure-activity relationship (SAR) of PRMT1 inhibitors (Table 1). […] The chemical modification of these compounds is mainly focused on the substituted benzene ring. The initial screening of these compounds was carried out using the radioactive PRMT1 methylation inhibition assay, which measured the amount of methyl groups that transferred from [^3H]-SAM to a biotinylated histone H4 peptide (ac- […](Biotin)). […] In the second step, the Group II compounds were designed and synthesized by extending the ethylenediamine side chain to propylenediamine.
(§1) The enzyme inhibitory activities were measured by the radioisotope assay in ShangHai Chempartner Co. Ltd. according to the standard protocol. The similar procedure was recently performed in the publication The radioactive methylation assay was performed in 1× assay buffer (modified Tris buffer) system containing enzyme (PRMT1/5), peptide and [^3H]-SAM solution and compounds on the assay plate. […] Afterwards, the reaction was stopped with addition of 5 μL cold SAM solution to per well. Then, 25 μL of volume per well was transferred to Flashplate from assay plate and incubated for 1 h minimum at room temperature. Finally, the Flashplate was washed with dH2O and 0.1% Tween-20 three times and then reading plate in Mi crobeta using program ^3H-Flashplate. The data was analyzed in GraphPad Prism 5 to obtain IC50 values.

PRMT5 = PRMT5 (Homo sapiens, UniProt O14744); test: radioactive methylation assay, PRMT5 selectivity; type: biochemical
Sequence of PRMT5 (O14744 whole entry, species assumed): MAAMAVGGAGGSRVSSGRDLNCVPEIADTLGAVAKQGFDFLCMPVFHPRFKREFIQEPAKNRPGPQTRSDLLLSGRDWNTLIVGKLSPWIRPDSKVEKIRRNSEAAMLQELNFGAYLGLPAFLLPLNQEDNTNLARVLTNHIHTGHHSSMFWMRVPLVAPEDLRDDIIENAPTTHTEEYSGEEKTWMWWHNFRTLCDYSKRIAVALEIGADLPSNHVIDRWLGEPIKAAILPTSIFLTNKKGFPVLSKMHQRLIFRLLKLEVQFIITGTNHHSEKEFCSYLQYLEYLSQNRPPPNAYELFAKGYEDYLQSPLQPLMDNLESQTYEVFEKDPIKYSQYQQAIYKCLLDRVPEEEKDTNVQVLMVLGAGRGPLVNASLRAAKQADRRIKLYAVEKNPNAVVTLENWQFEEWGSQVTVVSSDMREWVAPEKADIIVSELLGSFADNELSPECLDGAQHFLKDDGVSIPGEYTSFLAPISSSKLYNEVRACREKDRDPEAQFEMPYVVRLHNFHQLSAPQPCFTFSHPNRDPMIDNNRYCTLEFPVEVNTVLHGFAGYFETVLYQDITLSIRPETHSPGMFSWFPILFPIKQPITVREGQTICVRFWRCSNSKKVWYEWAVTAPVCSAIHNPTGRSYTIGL
Sequence of PRMT5 (Q9BQA1 whole entry partner, species assumed): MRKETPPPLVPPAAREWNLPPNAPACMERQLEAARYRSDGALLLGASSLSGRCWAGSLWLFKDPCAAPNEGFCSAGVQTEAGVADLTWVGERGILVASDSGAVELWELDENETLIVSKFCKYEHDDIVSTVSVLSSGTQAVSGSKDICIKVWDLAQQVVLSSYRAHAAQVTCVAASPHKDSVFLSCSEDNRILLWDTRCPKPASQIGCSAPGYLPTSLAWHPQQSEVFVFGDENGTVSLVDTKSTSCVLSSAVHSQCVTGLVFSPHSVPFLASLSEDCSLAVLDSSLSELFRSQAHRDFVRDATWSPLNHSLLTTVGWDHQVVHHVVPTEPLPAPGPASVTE
Description: as §1

Row | Compound | inhibition at 10 µM (PRMT1) [%] | melting point [°C] | other results
1 | CNCCCN(C)Cc1nnnn1-c1cccc(OC)c1 [10d, N,N’-Dimethyl-N’-(1-(3-methoxyphenyl)-1H-tetrazol-5-yl-methyl)-1,3-propylenediamine hydrochloride] | -14 |  | 
2 | N,N’-Dimethyl-N’-(1-(3-methylsulfonylphenyl)-1H-tetrazol-5-yl-methyl)ethylenediamine hydrochloride [16b] |  |  | % Inhibition of PRMT1 (at 10 μM) (PRMT1): 13%
3 | CNCCCN(C)Cc1nnnn1-c1cccc(OC(F)(F)F)c1 [10e, N,N’-Dimethyl-N’-(1-(3-trifluoromethoxyphenyl)-1H-tetrazol-5-yl-methyl)-1,3-propylenediamine hydrochloride] | -12 |  | 
4 | N,N’-Dimethyl-N’-(1-(4-methylsulfonylphenyl)-1H-tetrazol-5-yl-methyl)ethylenediamine hydrochloride [16a] |  |  | % Inhibition of PRMT1 (at 10 μM) (PRMT1): 23%
5 | CC(C)Oc1ccc(-n2nnnc2CN(C)CCN)cc1.Cl [18a, N-(1-(4-Isopropoxyphenyl)-1H-tetrazol-5-yl-methyl)-N-methyl-ethylenediamine hydrochloride] | 50 | 186.5 to 187.7 | IC50 (PRMT1): 10 µM; IC50 (PRMT5): > 100 µM
6 | CNCCCN(C)Cc1nnnn1-c1ccc(OC)cc1.Cl [10c, N,N’-Dimethyl-N’-(1-(4-methoxyphenyl)-1H-tetrazol-5-yl-methyl)-1,3-propylenediamine hydrochloride] | -6 | 188.2 to 190.1 | 
7 | CNCCN(C)Cc1nnnn1-c1cccc(OCC(F)(F)F)c1 [16d, N,N’-Dimethyl-N’-(1-(3-(2,2,2-trifluoroethoxy)phenyl)-1H-tetrazol-5-ylmethyl)ethylenediamine hydrochloride] | 3 |  | 
8 | N,N’-Dimethyl-N’-(1-(3-methylsulfonylphenyl)-1H-tetrazol-5-yl-methyl)-1,3-propylenediamine hydrochloride [16e] |  |  | % Inhibition of PRMT1 (at 10 μM) (PRMT1): −4%
9 | CNCCCN(C)Cc1nnnn1-c1cccc(OC(C)C)c1 [10b, N,N’-Dimethyl-N’-(1-(3-isopropoxyphenyl)-1H-tetrazol-5-yl-methyl)-1,3-propylenediamine hydrochloride] | 0 |  | 
10 | CNCCCN(C)Cc1nnnn1-c1ccc(OC(C)C)cc1 [10a, N,N’-Dimethyl-N’-(1-(4-isopropoxyphenyl)-1H-tetrazol-5-yl-methyl)-1,3-propylenediamine hydrochloride] | 23 |  | 
11 | N-Guanidino-N’-(1-(4-isopropoxyphenyl)-1H-tetrazol-5-yl-methyl)-N’-methyl-ethylenediamine hydrochloride [compound 20] |  |  | % Inhibition of PRMT1 (at 10 μM) (PRMT1): −7%
12 | CC(C)Oc1ccc(-n2nnnc2CNCCN)cc1 [18d, N-(1-(4-Isopropoxyphenyl)-1H-tetrazol-5-yl-methyl)-ethylenediaminehydrochloride] | 18 |  | 
13 | CNCCN(C)Cc1nnnn1-c1cccc(OC(C)C)c1 [9b, N,N’-Dimethyl-N’-(1-(3-isopropoxyphenyl)-1H-tetrazol-5-yl-methyl)ethylenediamine hydrochloride] | 0 |  | 
14 | CNCCN(C)Cc1nnnn1-c1cccc(OC(F)(F)F)c1.Cl [9e, N,N’-Dimethyl-N’-(1-(3-trifluoromethoxyphenyl)-1H-tetrazol-5-yl-methyl)ethylenediamine hydrochloride] | -17 | 185.6 to 186.4 | 
15 | CNCCN(C)Cc1nnnn1-c1ccc(OC(F)(F)F)cc1.Cl [9f, N,N’-Dimethyl-N’-(1-(4-trifluoromethoxyphenyl)-1H-tetrazol-5-yl-methyl)ethylenediamine hydrochloride] |  | 194.3 to 195.2 | IC50 (PRMT5): > 100 µM
16 | CC(C)Oc1ccc(-n2nnnc2CNCCN)cc1 (as salt: hydrochloride) [18d, N-(1-(4-Isopropoxyphenyl)-1H-tetrazol-5-yl-methyl)-ethylenediaminehydrochloride] |  | 183.1 to 183.9 | 
17 | CNCCN(C)Cc1nnnn1-c1cccc(OC)c1.Cl [9d, N,N’-Dimethyl-N’-(1-(3-methoxyphenyl)-1H-tetrazol-5-yl-methyl)ethylenediamine hydrochloride] | 7 | 185.6 to 186.4 | 
18 | CC(C)Oc1ccc(-n2nnnc2CN2CCN(CCN)CC2)cc1 [18e, N-aminoethyl-N’-(1-(4-isopropoxyphenyl)-1H-tetrazol-5-yl-methyl)-piperazinehydrochloride] |  |  | IC50 (PRMT5): > 100 µM
19 | CNCCNCc1nnnn1-c1ccc(OC(C)C)cc1.Cl [18c, N-Methyl-N’-(1-(4-isopropoxyphenyl)-1H-tetrazol-5-yl-methyl)-ethylenediamine hydrochloride] | 10 | 179.7 to 180.7 | 
20 | CNCCN(C)Cc1nnnn1-c1ccc(OC)cc1.Cl [9c, N,N’-Dimethyl-N’-(1-(4-methoxyphenyl)-1H-tetrazol-5-yl-methyl)ethylenediamine hydrochloride] | 3 | 163.2 to 163.6 | 
21 | CC(C)Oc1ccc(-n2nnnc2CN2CCN(CCN)CC2)cc1 (as salt: hydrochloride) [18e, N-aminoethyl-N’-(1-(4-isopropoxyphenyl)-1H-tetrazol-5-yl-methyl)-piperazinehydrochloride] |  | 183.2 to 183.9 | 
22 | CC(C)Oc1ccc(-n2nnnc2CN(C)CCCN)cc1 [18b, N-(1-(4-Isopropoxyphenyl)-1H-tetrazol-5-yl-methyl)-N-methyl-1,3-propylenediamine hydrochloride] | 15 |  | 
23 | CNCCN(C)Cc1nnnn1-c1ccc(OCC(F)(F)F)cc1.Cl [16c, N,N’-Dimethyl-N’-(1-(4-(2,2,2-trifluoroethoxy)phenyl)-1H-tetrazol-5-yl-methyl)ethylenediamine hydrochloride] |  | 188.7 to 190 | IC50 (PRMT5): > 100 µM
